Experimental data as given in patent publication US20250326794A1, “ANTI-CANCER LEUCINE-RICH PEPTIDES AND USES THEREOF” (KING'S COLLEGE LONDON, priority 2019, published 2025).

Key:
[1] = ANTS/DPX liposome leakage assay, POPC vesicles; assay type: biochemical; conditions: 0.5 mM vesicles; for Peptide Concentration-induced 50% ANTS/DPX leakage at pH 4.8, POPC Vesicle: pH 4.8, lipid per peptide; for Peptide Concentration-induced 50% ANTS/DPX leakage at pH 7.4, POPC Vesicle: pH 7.4, lipid per peptide
How it was run: (§1)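 Peptide titrations (0–20 μM) were incubated 3 h with 0.5 mM ANTS/DPX-loaded 100 nm vesicles, either POPC alone or 3:1 POPC/POPG, at pH 7.4 or pH 4.8 in PBS. ANTS fluorescence (350/510 nm) normalized to Triton-lysed vesicles; 50%-leakage values given as lipid:peptide ratio.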

[2] = Tryptophan fluorescent binding assay, 3POPC/1POPG vesicles; conditions: 50 μM peptide, PBS pH 7.4, lipid per peptide
How it was run: (§2)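 Binding followed by tryptophan emission (300-450 nm, 280 nm excitation, 3 scans averaged) after 60 min incubation of 50 μM peptide with 0-5000 μM extruded 100 nm POPC or 3:1 POPC/POPG vesicles in PBS pH 7.4. Value: lipid-to-peptide ratio at half-maximal binding.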

[3] = test system: HMLER-shEcad (human breast cancer stem cell); test: cells; conditions: 72 h
How it was run: (§3)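 MTT viability after 72 h exposure to 0–100 μM compound (final DMSO 0.5% or 0%), 5×10^3 cells/well; HMLER lines and MCF-10A in MEGM, U2OS in DMEM with 10% FBS. A550 normalized to matching vehicle controls; IC50 interpolated from dose–response curves.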

[4] = test system: HMLER (human breast cancer bulk cell); test: cells; conditions: 72 h
How it was run: as §3

[5] = test system: HEK293T (human embryonic kidney cell); test: cells; conditions: 72 h
[6] = Tryptophan fluorescent binding assay, POPC vesicles; conditions: 50 μM peptide, PBS pH 7.4, lipid per peptide
How it was run: as §2

[7] = test system: U2OS (human bone osteosarcoma); conditions: 72 h
How it was run: as §3

[8] = ANTS/DPX liposome leakage assay, 3POPC/1POPG vesicles; assay type: biochemical; conditions: 0.5 mM vesicles; for Peptide Concentration-induced 50% ANTS/DPX leakage at pH 4.8, 3POPC/1POPG Vesicle: pH 4.8, lipid per peptide; for Peptide Concentration-induced 50% ANTS/DPX leakage at pH 7.4, 3POPC/1POPG Vesicle: pH 7.4, lipid per peptide
How it was run: as §1

Structure (SMILES) | Peptide Concentration-induced 50% ANTS/DPX leakage at pH 4.8, POPC Vesicle [1] | Peptide Concentration-induced 50% ANTS/DPX leakage at pH 7.4, POPC Vesicle [1] | Lipid Concentration-induced 50% Peptide Binding, 3POPC/1POPG Vesicle [2] | IC50 [3] | IC50 [4] | IC50 [5] | Lipid Concentration-induced 50% Peptide Binding, POPC Vesicle [6] | IC50 [7] | Peptide Concentration-induced 50% ANTS/DPX leakage at pH 4.8, 3POPC/1POPG Vesicle [8] | Peptide Concentration-induced 50% ANTS/DPX leakage at pH 7.4, 3POPC/1POPG Vesicle [8]
CC(C)C[C@H](NC(=O)CN)C(=O)N[C@@H](CC(C)C)C(=O)N[C@@H](Cc1c[nH]cn1)C(=O)N[C@@H](CC(C)C)C(=O)N[C@@H](CC(C)C)C(=O)N[C@@H](CCC(=O)O)C(=O)N[C@@H](CC(C)C)C(=O)N[C@@H](CC(C)C)C(=O)N[C@@H](CC(C)C)C(=O)N[C@@H](CCC(=O)O)C(=O)N[C@@H](C)C(=O)N[C@@H](C)C(=O)NCC(=O)N[C@@H](Cc1c[nH]c2ccccc12)C(N)=O [HEE] | 100 L/P | 876 L/P | 0.50 L/P | 4.95 ± 0.49 µM | 6.5 ± 0.71 µM | 10.2 ± 0.2 µM | 0.58 L/P | 47.5 ± 11 µM | 122 L/P | 792 L/P
CC(C)C[C@H](NC(=O)CN)C(=O)N[C@@H](CC(C)C)C(=O)N[C@@H](Cc1c[nH]cn1)C(=O)N[C@@H](CC(C)C)C(=O)N[C@@H](CC(C)C)C(=O)N[C@@H](CCC(=O)O)C(=O)N[C@@H](CC(C)C)C(=O)N[C@@H](CC(C)C)C(=O)N[C@@H](CC(C)C)C(=O)N[C@@H](Cc1c[nH]cn1)C(=O)N[C@@H](C)C(=O)N[C@@H](C)C(=O)NCC(=O)N[C@@H](Cc1c[nH]c2ccccc12)C(N)=O [HEH] | 173 L/P | 995 L/P | 3.50 L/P | 11 ± 1.06 µM | 28.6 ± 10.8 µM | 8.8 ± 1.7 µM | 0.88 L/P | 106 ± 14 µM | 24 L/P | 505 L/P
CC(C)C[C@H](NC(=O)CN)C(=O)N[C@@H](CC(C)C)C(=O)N[C@@H](Cc1c[nH]cn1)C(=O)N[C@@H](CC(C)C)C(=O)N[C@@H](CC(C)C)C(=O)N[C@@H](Cc1c[nH]cn1)C(=O)N[C@@H](CC(C)C)C(=O)N[C@@H](CC(C)C)C(=O)N[C@@H](CC(C)C)C(=O)N[C@@H](CCC(=O)O)C(=O)N[C@@H](C)C(=O)N[C@@H](C)C(=O)NCC(=O)N[C@@H](Cc1c[nH]c2ccccc12)C(N)=O [HHE] | 143 L/P | 842 L/P | 0.75 L/P | 10.8 ± 0.78 µM | 16.7 ± 2.26 µM | 18.4 ± 3.75 µM | 1.00 L/P | 53.2 ± 5.3 µM | 113 L/P | 411 L/P
CC(C)C[C@H](NC(=O)CN)C(=O)N[C@@H](CC(C)C)C(=O)N[C@@H](Cc1c[nH]cn1)C(=O)N[C@@H](CC(C)C)C(=O)N[C@@H](CC(C)C)C(=O)N[C@@H](Cc1c[nH]cn1)C(=O)N[C@@H](CC(C)C)C(=O)N[C@@H](CC(C)C)C(=O)N[C@@H](CC(C)C)C(=O)N[C@@H](Cc1c[nH]cn1)C(=O)N[C@@H](C)C(=O)N[C@@H](C)C(=O)NCC(=O)N[C@@H](Cc1c[nH]c2ccccc12)C(N)=O [HHH] | 173 L/P | 1133 L/P | 0.82 L/P | 9.5 ± 0.99 µM | 21.1 ± 6.93 µM | 30.6 ± 4.81 µM | 0.46 L/P | 185 ± 7 µM | 50 L/P | 469 L/P
CC(C)C[C@H](NC(=O)CN)C(=O)N[C@@H](CC(C)C)C(=O)N[C@@H](Cc1c[nH]cn1)C(=O)N[C@@H](CC(C)C)C(=O)N[C@@H](CC(C)C)C(=O)N[C@@H](Cc1c[nH]cn1)C(=O)N[C@@H](CC(C)C)C(=O)N[C@@H](CC(C)C)C(=O)N[C@@H](CC(C)C)C(=O)N[C@@H](CCCCN)C(=O)N[C@@H](C)C(=O)N[C@@H](C)C(=O)NCC(=O)N[C@@H](Cc1c[nH]c2ccccc12)C(N)=O [HHK] | 149 L/P | 1133 L/P | 0.20 L/P | 1.75 ± 0.21 µM | 3.15 ± 0.07 µM | 5.25 ± 1.48 µM | 0.68 L/P | 12.7 ± 1.91 µM | 111 L/P | 160 L/P
CC(C)C[C@H](NC(=O)CN)C(=O)N[C@@H](CC(C)C)C(=O)N[C@@H](Cc1c[nH]cn1)C(=O)N[C@@H](CC(C)C)C(=O)N[C@@H](CC(C)C)C(=O)N[C@@H](CCCCN)C(=O)N[C@@H](CC(C)C)C(=O)N[C@@H](CC(C)C)C(=O)N[C@@H](CC(C)C)C(=O)N[C@@H](CCC(=O)O)C(=O)N[C@@H](C)C(=O)N[C@@H](C)C(=O)NCC(=O)N[C@@H](Cc1c[nH]c2ccccc12)C(N)=O [HKE] | 173 L/P | 692 L/P | 0.25 L/P | 1.9 ± 0.42 µM | 2.7 ± 0.28 µM | 5.15 ± 0.64 µM | 0.75 L/P | 16 ± 0.78 µM | 94 L/P | 365 L/P
CC(C)C[C@H](NC(=O)CN)C(=O)N[C@@H](CC(C)C)C(=O)N[C@@H](Cc1c[nH]cn1)C(=O)N[C@@H](CC(C)C)C(=O)N[C@@H](CC(C)C)C(=O)N[C@@H](CCCCN)C(=O)N[C@@H](CC(C)C)C(=O)N[C@@H](CC(C)C)C(=O)N[C@@H](CC(C)C)C(=O)N[C@@H](Cc1c[nH]cn1)C(=O)N[C@@H](C)C(=O)N[C@@H](C)C(=O)NCC(=O)N[C@@H](Cc1c[nH]c2ccccc12)C(N)=O [HKH] | 193 L/P | 1077 L/P | 0.38 L/P | 3.1 ± 0.57 µM | 3.45 ± 0.21 µM | 5.7 ± 0.99 µM | 0.18 L/P | 18.9 ± 1.24 µM | 47 L/P | 274 L/P
CC(C)C[C@H](NC(=O)CN)C(=O)N[C@@H](CC(C)C)C(=O)N[C@@H](Cc1c[nH]cn1)C(=O)N[C@@H](CC(C)C)C(=O)N[C@@H](CC(C)C)C(=O)N[C@@H](CCCCN)C(=O)N[C@@H](CC(C)C)C(=O)N[C@@H](CC(C)C)C(=O)N[C@@H](CC(C)C)C(=O)N[C@@H](CCCCN)C(=O)N[C@@H](C)C(=O)N[C@@H](C)C(=O)NCC(=O)N[C@@H](Cc1c[nH]c2ccccc12)C(N)=O [HKK] | 106 L/P | 657 L/P | 0.14 L/P | 2.6 ± 0.42 µM | 3.4 ± 0.71 µM | 9.5 ± 0.99 µM | 0.18 L/P | 12.23 ± 0.11 µM | 106 L/P | 90 L/P
